Patent US9566342B2, “Compounds for treatment of heart failure” (SOLVOTRIN INNOVATIONS LIMITED, priority 2010, dated 2017)

Assays:
[1] = molecular target: MMP-8 (Homo sapiens, UniProt P22894); test: Direct enzyme inhibition, MMP-8; assay type: biochemical
[2] = molecular target: T1, MMP-2 (Homo sapiens, UniProt P08253); test: Model of direct enzyme inhibition, MMP-2 (IC50); assay type: biochemical
T1 sequence (P08253 110-660): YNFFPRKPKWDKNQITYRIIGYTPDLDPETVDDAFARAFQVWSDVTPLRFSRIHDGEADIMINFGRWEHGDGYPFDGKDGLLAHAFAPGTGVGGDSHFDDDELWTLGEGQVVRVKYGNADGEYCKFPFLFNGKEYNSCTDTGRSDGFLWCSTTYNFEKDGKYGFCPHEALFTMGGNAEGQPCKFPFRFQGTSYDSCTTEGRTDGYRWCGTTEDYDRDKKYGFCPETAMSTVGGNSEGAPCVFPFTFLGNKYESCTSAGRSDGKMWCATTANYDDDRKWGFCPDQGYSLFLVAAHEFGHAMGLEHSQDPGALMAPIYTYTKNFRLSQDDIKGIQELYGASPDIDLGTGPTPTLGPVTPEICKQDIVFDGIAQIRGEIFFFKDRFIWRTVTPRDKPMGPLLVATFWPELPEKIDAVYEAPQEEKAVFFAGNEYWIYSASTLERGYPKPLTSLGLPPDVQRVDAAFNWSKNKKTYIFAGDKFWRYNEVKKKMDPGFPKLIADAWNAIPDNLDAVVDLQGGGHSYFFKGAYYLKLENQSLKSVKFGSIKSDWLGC

[3] = molecular target: T2, MMP-1 (Homo sapiens, UniProt P03956); test: Direct enzyme inhibition, MMP-1; assay type: biochemical
T2 sequence (P03956 100-469): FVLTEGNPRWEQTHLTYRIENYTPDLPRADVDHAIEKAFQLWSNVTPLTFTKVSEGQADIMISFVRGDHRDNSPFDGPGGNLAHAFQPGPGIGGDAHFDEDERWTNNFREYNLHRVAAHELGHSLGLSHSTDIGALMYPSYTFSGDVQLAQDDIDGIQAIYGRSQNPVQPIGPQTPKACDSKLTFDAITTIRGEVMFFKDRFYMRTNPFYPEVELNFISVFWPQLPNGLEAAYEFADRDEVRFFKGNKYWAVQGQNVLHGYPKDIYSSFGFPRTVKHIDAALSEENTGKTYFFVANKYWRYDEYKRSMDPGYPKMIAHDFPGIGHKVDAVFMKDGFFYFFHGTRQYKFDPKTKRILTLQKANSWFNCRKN

[4] = tested on: MMP-2; test: PMA stimulated breast cancer cell model (HT1080 cells), pro-MMP-2 / MMP-2; assay type: cell-based
[5] = molecular target: MMP-9 (Homo sapiens, UniProt P14780); test: Model of direct enzyme inhibition, MMP-9 (IC50); assay type: biochemical
MMP-9 (Homo sapiens, UniProt P14780), sequence (P14780 94-707): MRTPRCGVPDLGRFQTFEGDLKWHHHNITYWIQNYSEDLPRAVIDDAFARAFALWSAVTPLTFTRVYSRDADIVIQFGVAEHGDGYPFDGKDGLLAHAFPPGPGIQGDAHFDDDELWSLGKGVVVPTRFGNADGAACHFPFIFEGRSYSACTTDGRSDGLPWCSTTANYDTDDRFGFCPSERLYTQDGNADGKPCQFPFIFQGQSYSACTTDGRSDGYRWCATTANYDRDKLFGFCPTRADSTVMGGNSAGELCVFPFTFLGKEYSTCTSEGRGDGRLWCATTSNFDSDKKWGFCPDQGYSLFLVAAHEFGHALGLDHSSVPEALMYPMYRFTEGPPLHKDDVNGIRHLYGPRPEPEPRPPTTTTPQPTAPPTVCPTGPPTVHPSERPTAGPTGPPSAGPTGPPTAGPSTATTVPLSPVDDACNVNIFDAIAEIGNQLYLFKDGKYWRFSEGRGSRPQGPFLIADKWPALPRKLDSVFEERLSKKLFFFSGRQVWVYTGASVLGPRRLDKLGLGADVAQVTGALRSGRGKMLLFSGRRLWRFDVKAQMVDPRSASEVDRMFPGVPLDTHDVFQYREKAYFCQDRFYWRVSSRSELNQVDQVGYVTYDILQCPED

[6] = molecular target: MMP-13 (Homo sapiens, UniProt P45452); test: Direct enzyme inhibition, MMP-13; assay type: biochemical
[7] = tested on: human colon cancer cells; test: Colon cancer cell invasiveness, in vitro model; assay type: cell-based; details: low dose, FIG. 10
[8] = tested on: MMP-9; test: Total MMP-9 levels on repeated oral administration in non-human primates; assay type: in vivo, cynomolgus monkeys; details: cynomolgus monkey, in vivo, po

MMP-8, sequence (P22894 101-467, species assumed): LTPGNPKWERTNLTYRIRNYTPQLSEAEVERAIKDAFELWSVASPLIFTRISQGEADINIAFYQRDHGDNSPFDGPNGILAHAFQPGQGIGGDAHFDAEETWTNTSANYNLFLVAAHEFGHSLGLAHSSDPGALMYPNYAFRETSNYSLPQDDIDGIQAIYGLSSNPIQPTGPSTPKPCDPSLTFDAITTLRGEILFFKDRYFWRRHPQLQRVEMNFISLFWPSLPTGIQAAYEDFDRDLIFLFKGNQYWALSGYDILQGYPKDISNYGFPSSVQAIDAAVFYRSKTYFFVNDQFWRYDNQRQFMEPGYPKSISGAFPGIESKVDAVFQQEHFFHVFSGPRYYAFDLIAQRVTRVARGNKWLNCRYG

melting point [°C] | Compound | MMP-8 inhibition ([1]; 10 μM) [%] | MMP-8 inhibition ([1]; 100 μM) | IC50 [2] [µM] | MMP-1 inhibition ([3]; 10 μM) [%] | MMP-1 inhibition ([3]; 100 μM) | conversion of pro-MMP-2 to active MMP-2 (activation of MMP-2) [4] | IC50 [5] [µM] | MMP-13 inhibition ([6]; 10 μM) [%] | MMP-13 inhibition ([6]; 100 μM) | colon cancer cell invasiveness [7] | change in MMP-9 from baseline to 72 hours [8]
130 to 132 | C[C@H]1c2cccc(O)c2C(=O)C2=C(O)[C@]3(O)C(=O)C(C(=O)NCN4CCC(CO[N+](=O)[O-])CC4)=C(O)[C@@H](N(C)C)[C@@H]3[C@@H](O)[C@@H]21 [Example 7, amido-N-[4-(nitrooxymethyl)piperidinomethyl]-α-6-deoxy-5-oxytetracycline] | – | – | – | – | – | – | – | – | – | – | –
– | Amido-N-[3-(Nitrooxymethyl)Piperidinomethyl]-α-6-Deoxy-5-Oxytetracycline [SI1005] | ~16.9 | around 53.8% | 63 | ~13 | around 22% | do not appear to activate MMP-2 | 139 | ~6.6 | around 28.4% | more effective in reducing tumour cell invasiveness | significantly reduced compared to doxycycline and SI1004
